From ChEMBL document CHEMBL1201862, “PubChem BioAssay data set” (2004)
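A five-concentration, 48-hour dose response in 96-well plates underlies each endpoint, interpolated linearly between surrounding concentrations. Here, GI50 denotes the concentration required for 50% inhibition of growth.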 Activity calls are given as the source filed them. Cut-off read from the data, not from the text of the source: active = GI50 up to about 1.1 µM and inactive = higher.

Assays:
Assay in all cases: DTP human tumour cell line panel, 48 h
PC-3 = test system: PC-3
SN12C = test system: SN12C
SR = test system: SR
CAKI-1 = test system: CAKI-1
HCT-15 = test system: HCT-15
HL-60 = test system: HL-60
CCRF-CEM = test system: CCRF-CEM
T47D = test system: T47D
HCT-116 = test system: HCT-116
NCI-H460 = test system: NCI-H460
TK-10 = test system: TK-10
UO-31 = test system: UO-31
UACC-257 = test system: UACC-257
SK-MEL-28 = test system: SK-MEL-28
OVCAR-4 = test system: OVCAR-4
SF-268 = test system: SF-268
MDA-MB-435 = test system: MDA-MB-435
SK-OV-3 = test system: SK-OV-3
Hs-578T = test system: Hs-578T

| SMILES | GI50 (PC-3) | GI50 (SN12C) | GI50 (SR) | GI50 (CAKI-1) | GI50 (HCT-15) [µM] | GI50 (HL-60) | GI50 (CCRF-CEM) | GI50 (T47D) | GI50 (HCT-116) | GI50 (NCI-H460) | GI50 (TK-10) | GI50 (UO-31) | GI50 (UACC-257) | GI50 (SK-MEL-28) | GI50 (OVCAR-4) | GI50 (SF-268) | GI50 (MDA-MB-435) | GI50 (SK-OV-3) | GI50 (Hs-578T) |
| --- | --- | --- | --- | --- | --- | --- | --- | --- | --- | --- | --- | --- | --- | --- | --- | --- | --- | --- | --- |
| O=C(/C=C/c1ccc(O)c(O)c1)OCCc1cccc2ccccc12 | 3.88 µM (inactive) | 2.56 µM (inactive) | 0.841 µM (active) | 8.36 µM (inactive) | 1.28 | 1.38 µM (inactive) | 0.501 µM (active) | 12.6 µM (inactive) | 3.24 µM (inactive) | 12.1 µM (inactive) | 3.4 µM (inactive) | 4.21 µM (inactive) | 11.1 µM (inactive) | 4.15 µM (inactive) | 10.7 µM (inactive) | 4.76 µM (inactive) | 2.02 µM (inactive) | – | – |
| COC(=O)Cc1c([C@H]2[C@H](CC(=O)OC)c3ccccc3N2S(=O)(=O)c2ccc(C)cc2)[nH]c2ccccc12 | > 100 µM (inactive) | > 100 µM (inactive) | 9.33 µM (inactive) | > 100 µM (inactive) | > 100 | > 100 µM (inactive) | 18.5 µM (inactive) | – | > 100 µM (inactive) | > 100 µM (inactive) | > 100 µM (inactive) | > 100 µM (inactive) | > 100 µM (inactive) | > 100 µM (inactive) | > 100 µM (inactive) | > 100 µM (inactive) | > 100 µM (inactive) | > 100 µM (inactive) | > 100 µM (inactive) |
| CCOC(=O)C1=C(Nc2ccc(Br)cc2)OCC1=O | – | > 100 µM (inactive) | > 100 µM (inactive) | > 100 µM (inactive) | > 100 | 17.9 µM (inactive) | > 100 µM (inactive) | – | > 100 µM (inactive) | > 100 µM (inactive) | > 100 µM (inactive) | > 100 µM (inactive) | > 100 µM (inactive) | > 100 µM (inactive) | > 100 µM (inactive) | > 100 µM (inactive) | – | > 100 µM (inactive) | – |
| CCCCN1CCC(O)(c2cc(C(=O)O)[nH]c2-c2cc(C)no2)C1=O (stereo unspecified) | > 100 µM (inactive) | – | – | > 100 µM (inactive) | > 100 | – | – | – | > 100 µM (inactive) | > 100 µM (inactive) | > 100 µM (inactive) | > 100 µM (inactive) | > 100 µM (inactive) | > 100 µM (inactive) | > 100 µM (inactive) | > 100 µM (inactive) | > 100 µM (inactive) | > 100 µM (inactive) | > 100 µM (inactive) |
| O=C1NC2(CCN(CCCC3(c4ccc(F)cc4)OCCO3)CC2)Oc2ccccc21 | – | > 100 µM (inactive) | 39.7 µM (inactive) | – | 71.4 | 42.7 µM (inactive) | > 100 µM (inactive) | 35.8 µM (inactive) | > 100 µM (inactive) | 91.2 µM (inactive) | > 100 µM (inactive) | 12.7 µM (inactive) | 57.3 µM (inactive) | > 100 µM (inactive) | > 100 µM (inactive) | > 100 µM (inactive) | > 100 µM (inactive) | > 100 µM (inactive) | – |
| Cc1cccc2c1c(=O)c1c(O)cc3c(c1n2C)C=CC(C)(C)O3 | > 100 µM (inactive) | > 100 µM (inactive) | > 100 µM (inactive) | > 100 µM (inactive) | > 100 | > 100 µM (inactive) | > 100 µM (inactive) | – | > 100 µM (inactive) | > 100 µM (inactive) | 64.9 µM (inactive) | – | > 100 µM (inactive) | > 100 µM (inactive) | > 100 µM (inactive) | > 100 µM (inactive) | > 100 µM (inactive) | > 100 µM (inactive) | > 100 µM (inactive) |
| O=C1c2ccccc2-c2nc(-c3cccnc3)cc3c2c1nc1ccccc13 | > 100 µM (inactive) | > 100 µM (inactive) | 11.9 µM (inactive) | > 100 µM (inactive) | > 100 | 21.2 µM (inactive) | 26.5 µM (inactive) | – | > 100 µM (inactive) | 22.8 µM (inactive) | > 100 µM (inactive) | > 100 µM (inactive) | > 100 µM (inactive) | > 100 µM (inactive) | > 100 µM (inactive) | > 100 µM (inactive) | 18.2 µM (inactive) | > 100 µM (inactive) | > 100 µM (inactive) |
| CC[C@H](CCCC[C@H]1CC[C@@H]2CC(=O)C[C@H]12)OC | – | – | 32.9 µM (inactive) | > 100 µM (inactive) | – | 24 µM (inactive) | 60.7 µM (inactive) | 58.9 µM (inactive) | 52.2 µM (inactive) | > 100 µM (inactive) | > 100 µM (inactive) | – | 43.5 µM (inactive) | – | > 100 µM (inactive) | – | > 100 µM (inactive) | > 100 µM (inactive) | > 100 µM (inactive) |
| CCCCCCCCCCCNC=O | 23.9 µM (inactive) | 63.4 µM (inactive) | – | 33.3 µM (inactive) | 27.4 | 15.1 µM (inactive) | 26.5 µM (inactive) | 39.2 µM (inactive) | 33.6 µM (inactive) | 53.7 µM (inactive) | 37.7 µM (inactive) | 33.8 µM (inactive) | 32.4 µM (inactive) | 68.5 µM (inactive) | 45.3 µM (inactive) | 49.1 µM (inactive) | 73.8 µM (inactive) | 75.5 µM (inactive) | 52 µM (inactive) |
